# Laboratory results reported in paper PMC7076388 (Pharmaceutics, 2020).
# “Also recorded” adds a separate entry of the source.
# Key:
# RAW 264.7 cells = test system: RAW 264.7 cells; set-up: method as in PMID 30987203; conditions: up to 100 µM, 24 h, MTT; cited from earlier work
# [1] = test system: LPS-induced •NO production in RAW 264.7 cells; conditions: cited from earlier work
# [2] = molecular target: T1, LOX from glycine max (soybean) (Glycine max, UniProt P08170); set-up: method as in PMID 30987203; conditions: 100 µM; cited from earlier work
# T1 construct: purchased Sigma-Aldrich
# T1 sequence (P08170 1-839): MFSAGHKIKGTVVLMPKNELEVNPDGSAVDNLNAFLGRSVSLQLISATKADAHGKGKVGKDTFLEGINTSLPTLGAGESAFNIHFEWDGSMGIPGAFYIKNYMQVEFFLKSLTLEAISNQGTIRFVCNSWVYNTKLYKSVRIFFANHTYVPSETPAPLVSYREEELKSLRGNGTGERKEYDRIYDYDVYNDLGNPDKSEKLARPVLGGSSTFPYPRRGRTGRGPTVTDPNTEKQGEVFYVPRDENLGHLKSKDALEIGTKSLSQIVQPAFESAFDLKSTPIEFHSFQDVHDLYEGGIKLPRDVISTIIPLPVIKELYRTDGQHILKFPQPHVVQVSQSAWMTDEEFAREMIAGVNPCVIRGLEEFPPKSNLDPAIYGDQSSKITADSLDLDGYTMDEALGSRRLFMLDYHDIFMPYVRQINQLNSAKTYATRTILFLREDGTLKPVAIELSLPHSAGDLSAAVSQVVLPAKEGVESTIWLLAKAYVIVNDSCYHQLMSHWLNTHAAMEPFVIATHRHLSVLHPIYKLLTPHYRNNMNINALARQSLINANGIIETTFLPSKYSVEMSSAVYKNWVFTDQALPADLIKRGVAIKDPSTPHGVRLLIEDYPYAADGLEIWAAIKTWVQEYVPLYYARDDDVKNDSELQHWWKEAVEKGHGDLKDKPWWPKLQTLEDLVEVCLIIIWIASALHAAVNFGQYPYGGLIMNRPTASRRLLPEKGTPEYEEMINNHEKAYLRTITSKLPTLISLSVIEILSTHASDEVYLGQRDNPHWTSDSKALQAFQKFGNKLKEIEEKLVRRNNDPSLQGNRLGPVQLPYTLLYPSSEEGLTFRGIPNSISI
# AGS cells = experiment: MTT cell viability, AGS cells; type: cell-based; conditions: 100 µM, 24 h
# Experimental: Adenocarcinoma gastric cells (AGS; Sigma-Aldrich, St. Louis, MO, USA), murine-macrophage cell line (RAW 264.7; American Type Culture Collection, LGC Standards S.L.U., Barcelona, Spain), and human foetal lung fibroblasts (MRC-5; ECACC, Porton Down Salisbury, UK) were cultured as a monolayer at 37 °C in a humidified incubator with 5% carbon dioxide. AGS and RAW 264.7 cells were grown in DMEM, supplemented with 1% streptomycin/penicillin and 10% FBS (Gibco®). MRC-5 cells were grown in MEM, supplemented with 1% streptomycin/penicillin and 10% FBS.
# Cell viability was evaluated by the MTT reduction assay. Cells were cultured in 96-well plates (15,000 cells/well for AGS, 25,000 cells/well for RAW and 20,000 cells/well for MRC-5) and allowed to attach for 24 h. After incubation with compounds for 24 h, MTT (0.5 mg/mL final concentration) was added to each well and the plate was incubated for 75 min at 37 °C. Formazan crystals were dissolved by the addition of a DMSO: isopropanol mixture (3:1) and then quantified spectrophotometrically at 570 nm using a microplate reader (Multiskan Thermo Fisher Scientific Oy, Vantaa, Finland).
# COX-1 = molecular target: T2, COX-1 (Ovis aries, UniProt P05979); set-up: method as in PMID 30987203; conditions: 25 µM; cited from earlier work
# T2 construct: purchased Cayman Chemical
# T2 sequence (P05979 25-600): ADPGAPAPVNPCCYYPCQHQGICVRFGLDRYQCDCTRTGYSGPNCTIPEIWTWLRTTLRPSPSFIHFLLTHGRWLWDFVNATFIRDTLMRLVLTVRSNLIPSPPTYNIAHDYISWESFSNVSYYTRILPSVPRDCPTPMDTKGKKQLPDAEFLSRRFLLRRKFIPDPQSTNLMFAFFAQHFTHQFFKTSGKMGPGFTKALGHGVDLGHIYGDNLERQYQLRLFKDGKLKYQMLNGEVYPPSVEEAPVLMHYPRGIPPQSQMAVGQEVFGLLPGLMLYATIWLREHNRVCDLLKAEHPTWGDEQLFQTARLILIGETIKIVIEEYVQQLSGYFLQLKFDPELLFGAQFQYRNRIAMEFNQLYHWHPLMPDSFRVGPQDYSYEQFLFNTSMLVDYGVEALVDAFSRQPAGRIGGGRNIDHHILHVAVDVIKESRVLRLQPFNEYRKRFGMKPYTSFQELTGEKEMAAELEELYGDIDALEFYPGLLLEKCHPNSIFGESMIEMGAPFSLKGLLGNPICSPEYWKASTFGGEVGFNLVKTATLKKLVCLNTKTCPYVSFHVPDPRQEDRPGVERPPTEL
# [3] = molecular target: 20S proteasome isolated from erythrocytes (Homo sapiens, UniProt P28074); experiment: 20S proteasome inhibition (chymotrypsin-like activity); type: biochemical; set-up: purified 20S proteasome isolated from erythrocytes (Enzo Life Sciences); purchased Enzo Life Sciences; host or cells: erythrocytes
# Experimental: Proteasome activity was measured by adapting a method described by Silva et al.. The substrate used to study chymotrypsin-like enzyme activity was Suc-Leu-Leu-Val-Tyr-AMC and the enzyme used was purified 20S proteasome isolated from erythrocytes (Enzo Life Sciences). […] The plate was incubated at 37 °C in the dark for 2 h. […] Lactacystin was used as positive control.
# [4] = molecular target: T1, LOX from glycine max (soybean); experiment: Lipoxygenase glycine max (soybean) assay; type: biochemical; conditions: dose-response assay; read-out: IC50 for LOX inhibition
# Experimental: The inhibitory effect on LOX was assessed in 96-well plates, using a modified version of a previously reported procedure from Pereira et al.. […] After 5 min pre-incubation at room temperature, the reaction was started by addition of linoleic acid substrate (20 µL of a 4.18 mM solution in ethanol). The reaction was monitored at 234 nm using a multiplate reader (Multiskan Thermo Fisher Scientific Oy, Vantaa, Finland), for 3 min.
smiles,measurement,setting,value
"COc1ccc2cc(C(C)C(=O)NC(Cc3ccc(O)cc3)C(=O)NC(=Cc3ccccc3)C(=O)O)ccc2c1 [Compound 1, Npx-L-Tyr-Z-ΔPhe-OH]",cytotoxic effect on RAW 264.7 viability,RAW 264.7 cells,did not show any statistically significant cytotoxic effects
same,inhibition of LPS-induced production of •NO,[1]; preliminary study,modest ability to inhibit
same,IC50,"[1]; previously reported, read-out: IC50 (LPS-dependent •NO production)",79.3 µM
same,LOX inhibition at single concentration,[2],significantly inhibit the LOX enzyme to a similar level to naproxen; also recorded: high levels of lipoxygenase (LOX) inhibition
same,toxicity towards AGS cells,AGS cells,not toxic
same,COX inhibition level (COX-1),COX-1,modest levels of COX inhibition
same,remaining activity at 100 µM,"[3]; 100 µM, read-out: 20S proteasome enzyme activity remaining",11%
same,IC50,[3]; dose-response assay,30.6 µM
same,IC50,[4],54.1 µM
